≈ marks a conversion by molar mass, not a printed value. Positions of bridges follow the written chain, without caps; N, C: chain ends. Non-standard residues stand in square brackets, D forms with d. Residues, ends and D or L forms follow the SMILES beside them. Groups on a side chain read outwards from the residue. *: point of attachment. Palmitoyl(16-(5-tetrazolyl)) = O=C(CCCCCCCCCCCCCCCc1nnn[nH]1)*; Lys(CH2CO2H)2 = N[C@@H](CCCCN(CC(=O)O)CC(=O)O)C(=O)O; C16 diacid = O=C(O)CCCCCCCCCCCCCCC(=O)*; hCys = N[C@@H](CCS)C(=O)O; Dab = NCC[C@H](N)C(=O)O; Dap = NC[C@H](N)C(=O)O; AEEA = NCCOCCOCC(=O)O
Columns and labels:
[1] = physchem
Method: From a stock solution in vehicle, either H2O or 10 mM phosphate, containing 1 mg (as weighed) compound per ml, 8-11 aliquots are withdrawn and pH-adjusted individually with HCl/NaOH, to cover the whole pH range.

[2] = biological target: human MC4 receptor (Homo sapiens, UniProt P32245); test: biochemical
Method: Assay (V)—Melanocortin Receptor 4 (MC4) Binding Assay
In Vitro ^125NDP-α-MSH Binding to Recombinant BHK Cells Expressing Human MC4 Receptor (Filtration Assay).
The assay was performed in 5 ml minisorb vials (Sarstedt No. 55.526) or in 96-well filter-plates (Millipore MADVN 6550), and using BHK cells expressing the human MC4 receptor using BHK cells stably expressing the human MC4 receptor. The membranes were prepared from frozen or fresh cells that were homogenized in 20 mM HEPES pH 7.1, 5 mM MgCl2 and 1 mg/ml bacitracin and centrifuged at 15000 rpm at 4° C., 10 min in a Sorvall RC 5B plus, SS-34 rotor. The supernatant was discarded, and the pellets were re-suspended in buffer, homogenized and centrifuged two more times. The final pellets were resuspended in the buffer mentioned above, and the protein concentration was measured and adjusted with buffer to 14 to 17 mg/ml and the membrane preparation were kept at −80° C. until assay. The assay was run directly on a dilution of this cell membrane suspension, without any further preparation. The BHK cell membranes are kept at −80° C. until assay, and the assay is run directly on a dilution of this cell membrane suspension, without further preparation. The suspension is diluted to give maximally 10% specific binding, i.e. to approx. 50-100 fold dilution. The assay was performed in a total volume of 200 μl: 50 μl of cell suspension, 50 μl of ^125NDP-α-MSH (≈79 pM in final concentration), 50 μl of test compound and 50 μl binding buffer (pH 7) mixed and incubated for 2 h at 25° C. [binding buffer: 25 mM HEPES, pH 7.0, 1 mM CaCl2, 1 mM MgSO4, 1 mM EGTA, 0.02% Bacitracin, 0.005% Tween™ 20 and 0.1% HSA or, alternatively, 0.1% ovalbumin (Sigma; catalogue No. A-5503)]. Test compounds were dissolved in DMSO and diluted in binding buffer. Radiolabelled ligand and membranes were diluted in binding buffer. The incubation was stopped by dilution with 2×100 μl ice-cold 0.9% NaCl. The radioactivity retained on the filters was counted using a Cobra II auto gamma counter.
The data were analysed by non-linear regression analysis of binding curves, using the Windows™ program GraphPad™ Prism (GraphPad Software, USA).

[3] = biological target: MC1 receptor (Homo sapiens, UniProt Q01726); test: biochemical
Outline: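 Compounds competed against 125I-NDP-α-MSH (22 pM final) for binding to stably MC1-expressing BHK cell membranes, 30 °C for 90 min in HEPES pH 7.4 buffer with 0.1% HSA or ovalbumin. Bound ligand collected by filtration and counted; binding curves analysed by non-linear regression.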

human MC4 receptor, sequence (P32245 whole entry): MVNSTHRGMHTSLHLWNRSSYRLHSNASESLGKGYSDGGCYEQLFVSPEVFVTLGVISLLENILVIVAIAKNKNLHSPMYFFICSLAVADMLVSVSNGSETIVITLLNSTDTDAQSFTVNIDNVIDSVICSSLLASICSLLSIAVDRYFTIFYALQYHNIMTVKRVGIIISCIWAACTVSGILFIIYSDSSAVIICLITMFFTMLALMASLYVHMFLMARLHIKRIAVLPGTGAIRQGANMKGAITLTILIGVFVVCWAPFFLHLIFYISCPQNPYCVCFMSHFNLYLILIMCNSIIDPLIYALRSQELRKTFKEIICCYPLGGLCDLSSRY
MC1 receptor, sequence (Q01726 whole entry): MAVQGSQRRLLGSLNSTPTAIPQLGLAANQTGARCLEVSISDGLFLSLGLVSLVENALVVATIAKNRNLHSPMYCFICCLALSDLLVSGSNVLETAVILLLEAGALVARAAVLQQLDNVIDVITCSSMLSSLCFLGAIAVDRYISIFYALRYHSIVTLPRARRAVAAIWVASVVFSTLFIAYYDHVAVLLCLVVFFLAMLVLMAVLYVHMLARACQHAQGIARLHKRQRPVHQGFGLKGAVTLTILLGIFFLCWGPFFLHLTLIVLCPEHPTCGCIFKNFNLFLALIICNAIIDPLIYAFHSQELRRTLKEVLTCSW

`CC(=O)N[C@H]1CCSSC[C@@H](C(=O)N2CCC[C@H]2C(=O)N2CCC[C@H]2C(=O)N[C@@H](CCCCN)C(=O)N[C@@H](CCC(=O)O)C(=O)N[C@@H](CCCCN(CC(=O)O)CC(=O)O)C(=O)N[C@@H](CCCCNC(=O)COCCOCCNC(=O)CCCCCCCCCCCCCCC(=O)O)C(N)=O)NC(=O)[C@H](Cc2c[nH]c3ccccc23)NC(=O)[C@H](CCCNC(=N)N)NC(=O)[C@@H](Cc2ccccc2)NC(=O)[C@H](Cc2c[nH]cn2)NC1=O` [Example 5, Ac-c[homoCys-His-D-Phe-Arg-Trp-Cys]-Pro-Pro-Lys-Glu-Lys(biscarboxymethyl)-Lys({2-[2-(15-carboxypentadecanoylamino)ethoxy]ethoxy}acetyl)-NH2] (Ac-[hCys]H[dF]RWCPPKE[Lys(CH2CO2H)2]K([AEEA-C16 diacid])-NH2; disulfide 1-6) gave a solubility ([1]; pH 3.8, Solubility Conc.) of 486 µM (≈ 1040 µg/mL), a solubility ([1]; pH 4.6, Solubility Conc.) of 452 µM (≈ 968 µg/mL) and a solubility ([1]; pH 4.9, Solubility Conc.) of 233 µM (≈ 499 µg/mL). The solubility ([1]; pH 6.1, Solubility Conc.) was 200 µM (≈ 428 µg/mL), the solubility ([1]; pH 6.7, Solubility Conc.) was 320 µM (≈ 685 µg/mL) and the solubility ([1]; pH 7.1, Solubility Conc.) was 489 µM (≈ 1050 µg/mL). It also gave a solubility ([1]; pH 7.3, Solubility Conc.) of 496 µM (≈ 1060 µg/mL), a solubility ([1]; pH 7.7, Solubility Conc.) of 498 µM (≈ 1070 µg/mL) and a solubility ([1]; pH 7.8, Solubility Conc.) of 509 µM (≈ 1090 µg/mL). The Ki [2] was 17 nM and the Ki [3] was greater than 10000 nM.
Molecule `CC(=O)N[C@H]1CCC(=O)NC[C@@H](C(=O)N2CCC[C@H]2C(=O)N2CCC[C@H]2C(=O)N[C@@H](CCCNC(=N)N)C(=O)N[C@@H](CC(=O)O)C(=O)N[C@@H](CCCCN(CC(=O)O)CC(=O)O)C(=O)N[C@@H](CCCCNC(=O)COCCOCCNC(=O)CCCCCCCCCCCCCCCc2nnn[nH]2)C(N)=O)NC(=O)[C@H](Cc2c[nH]c3ccccc23)NC(=O)[C@H](CCCNC(=N)N)NC(=O)[C@@H](Cc2ccccc2)NC(=O)[C@H](Cc2c[nH]cn2)NC1=O` [Example 6, Ac-c[Glu-His-D-Phe-Arg-Trp-Dap]-Pro-Pro-Arg-Asp-Lys(biscarboxymethyl)-Lys[(2-{2-[16-(tetrazol-5-yl)hexadecanoylamino]ethoxy}ethoxy)acetyl]-NH2] (Ac-EH[dF]RW[Dap]PPRD[Lys(CH2CO2H)2]K([AEEA-Palmitoyl(16-(5-tetrazolyl))])-NH2; lactam 1-6) has a solubility ([1]; pH 5.9, Solubility Conc.) of 23 µM (≈ 50 µg/mL), a solubility ([1]; pH 6.3, Solubility Conc.) of 24 µM (≈ 52.1 µg/mL) and a solubility ([1]; pH 6.9, Solubility Conc.) of 44 µM (≈ 95.6 µg/mL). For the same molecule, the solubility ([1]; pH 7.2, Solubility Conc.) was 82 µM (≈ 178 µg/mL), the solubility ([1]; pH 7.4, Solubility Conc.) was 208 µM (≈ 452 µg/mL) and the solubility ([1]; pH 7.5, Solubility Conc.) was 270 µM (≈ 587 µg/mL). For the same molecule, the solubility ([1]; pH 7.6, Solubility Conc.) was 290 µM (≈ 630 µg/mL), the solubility ([1]; pH 7.8, Solubility Conc.) was 254 µM (≈ 552 µg/mL) and the solubility ([1]; pH 8.1, Solubility Conc.) was 280 µM (≈ 608 µg/mL). It also gave a Ki [2] of 13 nM and a Ki [3] greater than 10000 nM.
In the case of `CC(=O)N[C@H]1CCNC(=O)CC[C@@H](C(=O)N2CCC[C@H]2C(=O)N2CCC[C@H]2C(=O)N[C@@H](CCCNC(=N)N)C(=O)N[C@@H](CC(=O)O)C(=O)N[C@@H](CCCCN(CC(=O)O)CC(=O)O)C(=O)N[C@@H](CCCCNC(=O)COCCOCCNC(=O)CCCCCCCCCCCCCCCc2nnn[nH]2)C(N)=O)NC(=O)[C@H](Cc2c[nH]c3ccccc23)NC(=O)[C@H](CCCNC(=N)N)NC(=O)[C@@H](Cc2ccccc2)NC(=O)[C@H](Cc2c[nH]cn2)NC1=O` [Example 23, Ac-c[Dab-His-D-Phe-Arg-Trp-Glu]-Pro-Pro-Arg-Asp-Lys(biscarboxymethyl)-Lys[(2-{2-[16-(tetrazol-5-yl)hexadecanoylamino]ethoxy}ethoxy)acetyl]-NH2] (Ac-[Dab]H[dF]RWEPPRD[Lys(CH2CO2H)2]K([AEEA-Palmitoyl(16-(5-tetrazolyl))])-NH2; lactam 1-6), the solubility ([1]; pH 4.7, Solubility Conc.) is reported as 73 µM (≈ 160 µg/mL), the solubility ([1]; pH 6.1, Solubility Conc.) is reported as 34 µM (≈ 74.3 µg/mL) and the solubility ([1]; pH 6.6, Solubility Conc.) is reported as 38 µM (≈ 83.1 µg/mL). The solubility ([1]; pH 6.9, Solubility Conc.) was 45 µM (≈ 98.4 µg/mL), the solubility ([1]; pH 7.2, Solubility Conc.) was 76 µM (≈ 166 µg/mL) and the solubility ([1]; pH 7.4, Solubility Conc.) was 145 µM (≈ 317 µg/mL). For the same molecule, the solubility ([1]; pH 7.6, Solubility Conc.) was 229 µM (≈ 501 µg/mL), the solubility ([1]; pH 7.7, Solubility Conc.) was 295 µM (≈ 645 µg/mL) and the solubility ([1]; pH 7.9, Solubility Conc.) was 300 µM (≈ 656 µg/mL). It also gave a Ki [2] of 107 nM and a Ki [3] greater than 10000 nM.

From patent US20130012432A1, “Peptides for Treatment of Obesity” (Novo Nordisk A/S, priority 2010, published 2013)
